Test results published in patent publication US20240148821A1, “PHARMACEUTICAL USE OF CYCLIC PEPTIDE COMPOUND” (CHUGAI SEIYAKU KABUSHIKI KAISHA, priority 2021, published 2024).
Numbered stars: 1 amine (or outer) side, 2 acyl side, 3 side chain; on linkers, the order of the positions; unused ones are H or OH. Bridge positions count the residues as written; N and C are the ends. Square brackets hold non-standard residues; d marks the D form. Peptide text beside a SMILES is read from it. * marks the point of attachment. hPhe(3,5-F2-4-CF3) = N[C@@H](CCc1cc(F)c(C(F)(F)F)c(F)c1)C(=O)O; hPhe(3-Cl-4-CF3) = N[C@@H](CCc1ccc(C(F)(F)F)c(Cl)c1)C(=O)O; NMePhe(4-CF3) = CN[C@@H](Cc1ccc(C(F)(F)F)cc1)C(=O)O; Piperazinyl(4-(3-oxetanyl)) = C1OCC1N1CCN(*)CC1; Thiomorpholino(1,1-dioxo) = O=S1(=O)CCN(*)CC1; NMeAbu(4,4,4-F3) = CN[C@@H](CC(F)(F)F)C(=O)O; NMePhe(4-Cl) = CN[C@@H](Cc1ccc(Cl)cc1)C(=O)O; X131 = O=C([C@H](Cc1cccc(Br)c1F)N[*:1])[*:2]; NMePhe(4-Me) = CN[C@@H](Cc1ccc(C)cc1)C(=O)O; X40 = O=C([C@H](Cc1cc(I)ccc1F)N[*:1])[*:2]; NMeGly(cPent) = CN[C@H](C(=O)O)C1CCCC1; Phe(3-I) = N[C@@H](Cc1cccc(I)c1)C(=O)O; Pro(4,4-F2) = O=C(O)[C@@H]1CC(F)(F)CN1; NMeGly(cBu) = CN[C@H](C(=O)O)C1CCC1; NMeY = CN[C@@H](Cc1ccc(O)cc1)C(=O)O; NMeCha = CN[C@@H](CC1CCCCC1)C(=O)O; NMehLeu = CN[C@@H](CCC(C)C)C(=O)O; NEtLeu = CCN[C@@H](CC(C)C)C(=O)O; NMeChg = CN[C@H](C(=O)O)C1CCCCC1; NMeI = CC[C@H](C)[C@H](NC)C(=O)O; NMeD = CN[C@@H](CC(=O)O)C(=O)O; NMeL = CN[C@@H](CC(C)C)C(=O)O; NMeNva = CCC[C@H](NC)C(=O)O; NMeV = CN[C@H](C(=O)O)C(C)C; NMeAbu = CC[C@H](NC)C(=O)O; Morpholide = C1CN(*)CCO1; NMeA = CN[C@@H](C)C(=O)O; NMeAib = CNC(C)(C)C(=O)O; Nle = CCCC[C@H](N)C(=O)O; Piperidide = C1CCN(*)CC1; Pra = C#CC[C@H](N)C(=O)O; Pyrrolidide = C1CCN(*)C1; Ac5c = NC1(C(=O)O)CCCC1; Aze = O=C(O)[C@@H]1CCN1; CF3 = FC(F)(F)*; Sar = CNCC(=O)O

system: Human pancreatic cancer cell line AsPC-1 (G12D mutation Kras); assay: AsPC-1 cell growth inhibition (AsPC-1 CGI); assay type: cell-based; conditions: read-out: AsPC-1 cell growth inhibition, 50% growth inhibitory concentration (IC50 value); 96 hours, CellTiter-Glo, values classified in ranges
Description: Test compounds were serially dilated with dimethyl sulfoxide, and 200 nL was then dispensed to a U-bottom 96-well plate using Labcyte Echo. […] The cell suspension was dispensed to a. plate containing a test compound at 100 μL per well and incubated at 37° C. in a 5% carbon dioxide gas incubator. 96 hours later, 80 μL of CellTiter-Glo (Promega) was added to each well and fluorescence was measured.

`CC[C@H](C)[C@@H]1NC(=O)[C@H](CC(C)C)N(C)C(=O)C[C@@H](C(=O)N2CCOCC2)NC(=O)[C@H]([C@@H](C)CC)N(C)C(=O)C2(CCCC2)NC(=O)[C@@H]2CCCN2C(=O)[C@H](CCc2ccc(C(F)(F)F)c(Cl)c2)NC(=O)CN(C)C(=O)[C@H](CC2CCCCC2)N(C)C(=O)CN(C)C(=O)CN(C)C1=O` [Compound 1277] ([NMeL]I[Sar][Sar][NMeCha][Sar][hPhe(3-Cl-4-CF3)]P[Ac5c][NMeI]D-Morpholide; lactam N-11) and `CC[C@H](C)[C@@H]1NC(=O)[C@H](CC(C)C)N(C)C(=O)C[C@@H](C(=O)N2CCS(=O)(=O)CC2)NC(=O)[C@H]([C@@H](C)CC)N(C)C(=O)C2(CCCC2)NC(=O)[C@@H]2CCCN2C(=O)[C@H](CCc2ccc(C(F)(F)F)c(Cl)c2)NC(=O)CN(C)C(=O)[C@H](CC2CCCCC2)N(C)C(=O)CN(C)C(=O)CN(C)C1=O` [Compound 1279] ([NMeL]I[Sar][Sar][NMeCha][Sar][hPhe(3-Cl-4-CF3)]P[Ac5c][NMeI]D-{Thiomorpholino(1,1-dioxo)}; lactam N-11) cannot be ordered by IC50: greater than 500 nM for the first, greater than 500 nM for the second.

`CC[C@H](C)[C@@H]1NC(=O)[C@H](CC(F)(F)F)N(C)C(=O)C[C@@H](C(=O)N2CCCC2)N(C)C(=O)[C@H](C2CCCCC2)N(C)C(=O)C2(CCCC2)NC(=O)[C@@H]2CC(F)(F)CN2C(=O)[C@H](CCc2cc(F)c(C(F)(F)F)c(F)c2)NC(=O)CN(C)C(=O)[C@H](CC2CCCCC2)N(C)C(=O)CN(C)C(=O)CN(C)C1=O` [Compound 1281] ([NMeAbu(4,4,4-F3)]I[Sar][Sar][NMeCha][Sar][hPhe(3,5-F2-4-CF3)][Pro(4,4-F2)][Ac5c][NMeChg][NMeD]-Pyrrolidide; lactam N-11) and `CC[C@H](C)[C@@H]1NC(=O)[C@H](C2CCC2)N(C)C(=O)C[C@@H](C(=O)N2CCCC2)N(C)C(=O)[C@H](C2CCCCC2)N(C)C(=O)C2(CCCC2)NC(=O)[C@@H]2CC(F)(F)CN2C(=O)[C@H](CCc2cc(F)c(C(F)(F)F)c(F)c2)NC(=O)CN(C)C(=O)[C@H](CC2CCCCC2)N(C)C(=O)CN(C)C(=O)CN(C)C1=O` [Compound 1295] ([NMeGly(cBu)]I[Sar][Sar][NMeCha][Sar][hPhe(3,5-F2-4-CF3)][Pro(4,4-F2)][Ac5c][NMeChg][NMeD]-Pyrrolidide; lactam N-11) cannot be ordered by IC50: no more than 20 nM for the first, no more than 20 nM for the second.

`CC[C@H](C)[C@@H]1NC(=O)[C@H](CC(C)C)N(CC)C(=O)C[C@@H](C(=O)N(C)C)N(C)C(=O)[C@H](C2CCCC2)N(C)C(=O)C2(CCCC2)NC(=O)[C@@H]2CCCN2C(=O)[C@H](CCc2ccc(C(F)(F)F)c(Cl)c2)NC(=O)CN(C)C(=O)[C@H](Cc2ccc(C)cc2)N(C)C(=O)[C@@H]2CCN2C(=O)[C@H](C)NC1=O` [Compound 1282] ([NEtLeu]IA[Aze][NMePhe(4-Me)][Sar][hPhe(3-Cl-4-CF3)]P[Ac5c][NMeGly(cPent)][NMeD]-NMe2; lactam N-11) and `CC[C@H](C)[C@@H]1NC(=O)[C@H](CCC(C)C)N(C)C(=O)C[C@@H](C(=O)N2CCCC2)N(C)C(=O)[C@H]([C@@H](C)CC)N(C)C(=O)C2(CCCC2)NC(=O)[C@@H]2CCCN2C(=O)[C@H](CCc2ccc(C(F)(F)F)c(Cl)c2)NC(=O)CN(C)C(=O)[C@H](Cc2ccc(C(F)(F)F)cc2)N(C)C(=O)[C@@H]2CCN2C(=O)[C@H](C)N(C)C1=O` [Compound 1289] ([NMehLeu]I[NMeA][Aze][NMePhe(4-CF3)][Sar][hPhe(3-Cl-4-CF3)]P[Ac5c][NMeI][NMeD]-Pyrrolidide; lactam N-11) cannot be ordered by IC50: no more than 20 nM for the first, no more than 20 nM for the second.

`CCCC[C@@H]1NC(=O)[C@H](Cc2cc(I)ccc2F)NC(=O)CN(C)C(=O)[C@H](Cc2ccc(Cl)cc2)N(C)C(=O)CN(C)C(=O)CN(C)C(=O)[C@H]([C@@H](C)CC)NC(=O)[C@H](CC(C)C)N(C)C(=O)C[C@@H](C(=O)N2CCCCC2)N(C)C(=O)[C@H](CC(C)C)NC(=O)C(C)(C)N(C)C1=O` [Compound 1286] ([NMeL]I[Sar][Sar][NMePhe(4-Cl)][Sar][X40][Nle][NMeAib]L[NMeD]-Piperidide; lactam N-11) and `C#CC[C@@H]1NC(=O)[C@H](Cc2cccc(I)c2)NC(=O)CN(C)C(=O)[C@H](Cc2ccc(OC(F)(F)F)cc2)N(C)C(=O)[C@@H]2CCN2C(=O)CN(C)C(=O)[C@H]([C@@H](C)CC)NC(=O)[C@H](CC(C)C)N(C)C(=O)C[C@@H](C(=O)N2CCCCC2)N(C)C(=O)[C@H](CC(C)C)NC(=O)C(C)(C)N(C)C1=O` [Compound 1298] ([NMeL]I[Sar][Aze][NMeY](CF3)[Sar][Phe(3-I)][Pra][NMeAib]L[NMeD]-Piperidide; lactam N-11) cannot be ordered by IC50: greater than 500 nM for the first, greater than 500 nM for the second.

`C#CC[C@@H]1NC(=O)[C@H](Cc2cccc(I)c2)NC(=O)CN(C)C(=O)[C@H](Cc2ccc(OC(F)(F)F)cc2)N(C)C(=O)[C@@H]2CCN2C(=O)[C@H](C)N(C)C(=O)[C@H]([C@@H](C)CC)NC(=O)[C@H](CC(C)C)N(C)C(=O)C[C@@H](C(=O)N2CCCCC2)N(C)C(=O)[C@H](CC(C)C)NC(=O)C(C)(C)N(C)C1=O` [Compound 1288] ([NMeL]I[NMeA][Aze][NMeY](CF3)[Sar][Phe(3-I)][Pra][NMeAib]L[NMeD]-Piperidide; lactam N-11) and `CCCC[C@@H]1NC(=O)[C@H](Cc2cccc(Br)c2F)NC(=O)CN(C)C(=O)[C@H](Cc2ccc(OC)cc2)N(C)C(=O)[C@@H]2CCN2C(=O)[C@H](C)N(C)C(=O)[C@H]([C@@H](C)CC)NC(=O)[C@H](CC)N(C)C(=O)C[C@@H](C(=O)N2CCCCC2)N(C)C(=O)[C@H](CC(C)C)NC(=O)C(C)(C)N(C)C1=O` [Compound 1304] ([NMeAbu]I[NMeA][Aze][NMeY](Me)[Sar][X131][Nle][NMeAib]L[NMeD]-Piperidide; lactam N-11) cannot be ordered by IC50: greater than 500 nM for the first, greater than 500 nM for the second.

First: CC[C@H](C)[C@@H]1NC(=O)[C@H](CC(C)C)N(C)C(=O)C[C@@H](C(=O)N2CCN(C3COC3)CC2)NC(=O)[C@H](C(C)C)N(C)C(=O)C2(CCCC2)NC(=O)[C@@H]2CCCN2C(=O)[C@H](CCc2ccc(C(F)(F)F)c(Cl)c2)NC(=O)CN(C)C(=O)[C@H](CC2CCCCC2)N(C)C(=O)[C@@H]2CCN2C(=O)[C@H](C)N(C)C1=O [Compound 1294] ([NMeL]I[NMeA][Aze][NMeCha][Sar][hPhe(3-Cl-4-CF3)]P[Ac5c][NMeV]D-{Piperazinyl(4-(3-oxetanyl))}; lactam N-11)
Second: CCC[C@H]1C(=O)N[C@@H]([C@@H](C)CC)C(=O)N(C)CC(=O)N(C)CC(=O)N(C)[C@@H](Cc2ccc(C)cc2)C(=O)N(C)CC(=O)N[C@@H](CCc2ccc(C(F)(F)F)c(Cl)c2)C(=O)N2CC(F)(F)C[C@H]2C(=O)NC2(CCCC2)C(=O)N(C)[C@@H](C2CCCCC2)C(=O)N(C)[C@H](C(=O)N2CCCC2)CC(=O)N1C [Compound 1296] ([NMeNva]I[Sar][Sar][NMePhe(4-Me)][Sar][hPhe(3-Cl-4-CF3)][Pro(4,4-F2)][Ac5c][NMeChg][NMeD]-Pyrrolidide; lactam N-11)
The IC50 of the first is higher: greater than 500 nM for the first, no more than 20 nM for the second.

For `CC[C@H](C)[C@@H]1NC(=O)[C@H](CC(F)(F)F)N(C)C(=O)C[C@@H](C(=O)N2CCCC2)N(C)C(=O)[C@H](C2CCCCC2)N(C)C(=O)C2(CCCC2)NC(=O)[C@@H]2CC(F)(F)CN2C(=O)[C@H](CCc2cc(F)c(C(F)(F)F)c(F)c2)NC(=O)CN(C)C(=O)[C@H](Cc2ccc(C(F)(F)F)cc2)N(C)C(=O)CN(C)C(=O)CN(C)C1=O` [Compound 1303] ([NMeAbu(4,4,4-F3)]I[Sar][Sar][NMePhe(4-CF3)][Sar][hPhe(3,5-F2-4-CF3)][Pro(4,4-F2)][Ac5c][NMeChg][NMeD]-Pyrrolidide; lactam N-11), the IC50 was no more than 20 nM.
